This is an account of results in PubChem BioAssay (NCI).

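The compound was tested at five concentrations on cells cultured in 96-well plates, with a 48-hour exposure period. The concentration for full growth arrest is given as TGI.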

What all share (test): NCI anticancer screen, dose series, 48 h
Experiment [1] concerns IGROV1 ovarian.
Experiment [2] relates to SN12C renal.
For experiment [3], the system named is SK-MEL-28 melanoma.
Experiment [4] deals with CCRF-CEM leukemia.
The test system of experiment [5] is HCT-116 colon.
The subject of experiment [6] is UACC-257 melanoma.
Experiment [7] has as its system RPMI-8226 leukemia.
The subject of experiment [8] is MOLT-4 leukemia.
Experiment [9] deals with 786-0 renal.
Experiment [10] relates to HCT-15 colon.

In the case of `CCOC(=O)C1=CN(C(=O)c2ccccc2)CCC1Cc1ccccc1` (centres undefined), the TGI in experiment [1] is more than 100 µM; in [2], 57.4 µM; in experiment [3], 63.3 µM; in [4], 54.5 µM; in experiment [5], 84.4 µM; in [6], 34.3 µM. The TGI in [7] is 36.6 µM; in [8] it was 38.5 µM; in [9], more than 100 µM; in [10] it was more than 100 µM.
For `Cc1nn(C(=O)c2ccc(Cl)cc2)c2c1C(c1ccco1)SC(N)=N2` (centres undefined), the TGI in experiment [1], in experiment [2], in experiment [3], in experiment [4], in [5] and in experiment [6] was more than 10 µM in each case. The TGI in experiment [7], in experiment [8], in experiment [9] and in experiment [10] was more than 10 µM each time.
Consider `COc1c(Cl)c(Cl)c(OC)c2c1C(=O)C=CC2=O`, for which the TGI in experiment [1] was 56.9 µM; in experiment [2], 62.2 µM; in [3], 34.7 µM; in experiment [4] it was 53.5 µM; in experiment [5], 31.6 µM; in experiment [6] it was 35.4 µM. For the same molecule, the TGI in [7] was 73.1 µM; in experiment [8] it was 46.7 µM; in experiment [9], 31.3 µM; in experiment [10] it was more than 100 µM.
For the molecule `O=C1/C(=C2\SCC(=O)N2c2ccccc2)SC(=S)N1c1ccccc1`, the TGI was 52.7 µM in experiment [1]; 68.6 µM in [2]; more than 100 µM in [3]; more than 100 µM in [4]; more than 100 µM in experiment [5]; more than 100 µM in experiment [6]. Moreover, the TGI is more than 100 µM in experiment [7], 51.7 µM in [8], more than 100 µM in experiment [9] and more than 100 µM in experiment [10].
For the molecule `OC1(c2ccc(Cl)cc2)c2ccccc2C2=NCc3ccccc3CN21` (centres undefined), the TGI is 9.63 µM in experiment [1]; more than 52.4 µM in experiment [2]; 9.58 µM in [3]; more than 69.6 µM in experiment [4]; 19.2 µM in [5]; 28.3 µM in [6]. The TGI is more than 48.6 µM in [7], more than 47.6 µM in experiment [8], 19.4 µM in experiment [9] and 20 µM in [10].
Consider `Cc1ccc(C2(c3ccc(C)c(O)c3C)CCN(C)CC2)c(C)c1O`, for which the TGI in experiment [1] is more than 100 µM; in experiment [2] it was more than 100 µM; in experiment [3] it was more than 100 µM; in [4], more than 100 µM; in [5], more than 100 µM; in [6], 35.3 µM. In addition, the TGI in [7], in experiment [8], in experiment [9] and in experiment [10] was more than 100 µM each time.
As for `O=C1OC(C(O)C(O)C(O)CO)C(O)C1O` (centres undefined), the TGI in experiment [1], in experiment [2], in [3], in experiment [4], in experiment [5] and in [6] was more than 100 µM throughout. Besides, the TGI in experiment [7], in [8], in [9] and in experiment [10] was more than 100 µM each time.
In the case of `CSc1nc(=O)c(C#N)c(-c2ccccc2)n1C1OC(COC(C)=O)C(OC(C)=O)C(OC(C)=O)C1OC(C)=O` (centres undefined), the TGI in experiment [1], in experiment [2], in experiment [3], in [4], in [5] and in [6] was more than 100 µM throughout. The TGI in experiment [7], in experiment [8], in experiment [9] and in [10] was more than 100 µM in each case.
Consider `C=CCc1cccc2cc(C(=O)Nc3nc(C45CC6CC(CC(C6)C4)C5)cs3)c(=O)oc12`, for which the TGI in experiment [1] was 94.5 µM; in experiment [2], more than 100 µM; in experiment [3], more than 100 µM; in experiment [4], more than 100 µM; in experiment [6] it was more than 100 µM; in experiment [7] it was more than 100 µM. In addition, the TGI in experiment [8] is more than 100 µM; in experiment [9] it was 54.6 µM; in experiment [10], more than 100 µM.
On to `CC(C)=CCC/C(C)=C/CC/C(C)=C/CSc1ccc(Cl)cc1C(=O)O`, for which the TGI in experiment [1] stood at 34.8 µM; in experiment [2], 48 µM; in [3], 33.9 µM; in experiment [4], 48.9 µM; in experiment [5], 31.6 µM; in experiment [6], 82.2 µM. Besides, the TGI in experiment [7] stood at 55.6 µM; in experiment [8], 49.9 µM; in experiment [9] it was 30.8 µM; in experiment [10], 34.7 µM.
On to `COC1=CCC2=C(CCN(C(=O)C3CCC3)C2Cc2ccc(OC)c(O)c2)C1` (centres undefined), for which the TGI was more than 100 µM in experiment [1]; 54.3 µM in experiment [2]; more than 100 µM in [3]; more than 100 µM in experiment [4]; 48.6 µM in experiment [5]; more than 100 µM in experiment [6]. For the same molecule, the TGI in experiment [7] was more than 100 µM; in [8], more than 100 µM; in experiment [9], 47.4 µM; in [10], 25.1 µM.
As to `COc1cc(C2c3cc4c(cc3OC(N3CCOCC3)C2C)OCO4)cc(OC)c1OC(C)=O` (centres undefined), the TGI in experiment [1] was more than 100 µM; in [2] it was more than 84.2 µM; in [3], more than 91.6 µM; in experiment [4], more than 100 µM; in experiment [5], 60.8 µM; in experiment [6] it was more than 100 µM. For the same molecule, the TGI in experiment [7], in [8], in experiment [9] and in experiment [10] was more than 100 µM in each case.
`COC(=O)c1ccccc1N=Cc1ccc(N(CCC#N)S(=O)(=O)c2ccccc2)cc1`: the TGI in experiment [1], in experiment [2], in [3], in experiment [4], in experiment [5] and in experiment [6] was more than 100 µM each time. In addition, the TGI in experiment [7], in experiment [8], in [9] and in experiment [10] was more than 100 µM in each case.
Take `CC(C)(C)OC(=O)N1C/C=C\C(=O)C2(OCCO2)c2ccccc21`: the TGI is 33.4 µM in [1]; 88.9 µM in experiment [2]; 49.5 µM in experiment [3]; 57 µM in experiment [4]; 34.9 µM in experiment [5]; 39.3 µM in [6]. Further, the TGI in [7] was 54.1 µM; in experiment [8] it was 76.5 µM; in experiment [9] it was 56.9 µM; in [10], more than 100 µM.
Turning to `CCOC(=O)/C=C(/C(=O)OCC)n1ccc(=O)[nH]c1=O`, the TGI in experiment [1] worked out at 31.1 µM; in [2], 19.6 µM; in experiment [3], 18.4 µM; in experiment [4], 3.99 µM; in experiment [5] it was 7.14 µM; in experiment [6], 25.2 µM. The TGI was determined as 11.3 µM in experiment [7], 6.12 µM in [8], 11.3 µM in experiment [9] and 9.39 µM in experiment [10].
`O=C(CC(=O)Nc1ccccc1Cl)NNC(Sc1ccccc1)c1cc(N=Nc2ccc(Br)cc2)ccc1O` (centres undefined): the TGI is 5.53 µM in [1]; more than 10 µM in experiment [2]; more than 10 µM in experiment [3]; 6.21 µM in experiment [4]; 1.31 µM in experiment [5]; more than 10 µM in experiment [6]. Also, the TGI in experiment [7] is more than 10 µM; in experiment [8] it was 1.75 µM; in experiment [9] it was 2.42 µM; in [10], more than 10 µM.
Take `O=[N+]([O-])c1ccc(-[n+]2ccc3ccccc3c2)c([N+](=O)[O-])c1`: the TGI amounted to 8.61 µM in experiment [1]; 6.82 µM in experiment [2]; 8.25 µM in [3]; 5.38 µM in experiment [4]; 5.95 µM in experiment [5]; 4.08 µM in experiment [6]. Further, the TGI in [7] is 6.68 µM; in experiment [8], more than 21 µM; in experiment [9], 3.24 µM; in experiment [10], 3.65 µM.
On to `CC(CC(C)(C)[N+](C)(C)C)[N+](C)(C)C` (centres undefined), for which the TGI in [1], in [2], in [3], in experiment [4], in [5] and in experiment [6] was more than 100 µM each time. The TGI in experiment [7], in experiment [8], in experiment [9] and in [10] was more than 100 µM throughout.
`CC(=O)N1C(OCc2ccccc2)CCN1c1ccccc1` (centres undefined): the TGI in [1], in experiment [2], in experiment [3], in experiment [4], in experiment [5] and in experiment [6] was more than 10 µM each time. Further, the TGI in experiment [7], in [8], in experiment [9] and in experiment [10] was more than 10 µM each time.
`C=C(COC(=O)C(C)C)[C@H]1Oc2ccc(C(C)=O)cc2[C@@H]1OC(=O)C(C)C`: the TGI in experiment [1], in experiment [2], in experiment [3], in [4], in experiment [5] and in experiment [6] was more than 100 µM in each case. The TGI in [7], in [8], in experiment [9] and in experiment [10] was more than 100 µM throughout.
On to `c1ccc(-c2nc3ccccc3n3nnnc23)cc1`, for which the TGI in experiment [1], in [2], in [3], in [4], in [5] and in experiment [6] was more than 100 µM in each case. Besides, the TGI in experiment [7], in experiment [8], in experiment [9] and in experiment [10] was more than 100 µM in each case.
As for `Cc1nc(N)nc(N)c1N1CCN(Cc2ccccc2)CC1`, the TGI in experiment [1], in experiment [2], in [3], in experiment [4], in experiment [5] and in experiment [6] was more than 100 µM each time. Moreover, the TGI in experiment [7] is more than 95.6 µM; in experiment [8] it was more than 100 µM; in [9], more than 100 µM; in experiment [10], more than 100 µM.
For `C=C1[C@H](OCC(C)C)[C@@H](OC(=O)C(C)CC)[C@@H](O)C(C)(C)/C=C/[C@H](C)C(=O)[C@@]2(O)C[C@H](C)[C@H](O)[C@@H]2[C@H]1OC(=O)C(C)CC` (some centres undefined), the TGI in [1] is more than 20 µM; in experiment [2], more than 20 µM; in experiment [3], more than 20 µM; in experiment [4], more than 9.76 µM; in experiment [5] it was more than 20 µM; in experiment [6], more than 14.1 µM. In addition, the TGI in experiment [7] was 12 µM; in experiment [8], more than 10.3 µM; in [9] it was more than 20 µM; in experiment [10], more than 20 µM.
As for `COc1ccc(N2C(=O)C3c4[nH]c5ccccc5c4C4CCC(C(C)(C)C)CC4C3C2=O)cc1OC` (centres undefined), the TGI in [1] is more than 100 µM; in experiment [2] it was 48.5 µM; in experiment [3] it was more than 100 µM; in experiment [4] it was 98.5 µM; in experiment [5], 31.4 µM; in experiment [6] it was more than 100 µM. In addition, the TGI is 61.5 µM in experiment [7], 43.9 µM in [8], 33.9 µM in experiment [9] and more than 100 µM in [10].
Regarding `O=C(c1ccccc1)n1[nH]c(=O)n(-c2ccc(Cl)cc2)c1=O`, the TGI in [1], in [2], in [3], in experiment [4], in experiment [5] and in [6] was more than 100 µM each time. Moreover, the TGI in [7], in experiment [8], in experiment [9] and in experiment [10] was more than 100 µM throughout.
As to `COc1cccc(/C=N/n2c(Cc3ccc(Cl)cc3)n[nH]c2=O)c1`, the TGI is more than 100 µM in experiment [1]; 71 µM in [2]; more than 100 µM in experiment [3]; more than 100 µM in [4]; more than 100 µM in experiment [5]; more than 100 µM in [6]. For the same molecule, the TGI in [7] was more than 100 µM; in [8] it was more than 100 µM; in experiment [9] it was more than 71.9 µM; in [10], more than 100 µM.
